Experimental data taken from publication PMC6050476, “Pre-clinical Pharmacokinetic and Metabolomic Analyses of Isorhapontigenin, a Dietary Resveratrol Derivative” (Frontiers in Pharmacology, 2018).

How the values were obtained:
[1] = Plasma pharmacokinetics of isorhapontigenin in Sprague-Dawley rats (LC–MS/MS); assay type: in vivo; conditions: rat
Method: This in vivo study was conducted with strict adherence to the “Guidelines on the Care and Use of Animals for Scientific Purposes” (Singapore). The pharmacokinetic study design and animal handling procedures were reviewed and approved by the Institutional Animal Care and Use Committee of the National University of Singapore (NUS; R15-1273). All animal experiments were carried out in a specific pathogen-free animal facility (temperature: 22 ± 1°C; humidity: 60–70%) in Comparative Medicine, NUS. Sprague-Dawley rats (male, 9–10 weeks old, weight: 300–350 g) were purchased from InVivos (Singapore). The rats were housed under a 12 h light–dark cycle with free access to food and water. On the day before the pharmacokinetic study, surgery was performed under isoflurane anesthesia and a catheter (polyethylene tube, i.d. = 0.580 mm, o.d. = 0.965 mm, Becton Dickinson, Sparks, MD, United States) was implanted into the right jugular vein. Intravenous ISO administration and blood collection were carried out via this cannula. To prevent cross-contamination and blood clotting, ∼0.3 mL heparin-saline (10 I.U./mL) was flushed through the cannula after intravenous dosing or each blood collection. This reliable pharmacokinetic model has been routinely used in our laboratory to assess the pharmacokinetic profiles of resveratrol and its derivatives ([Yeo et al., 2013a],[b], [2017]; [Choo et al., 2014]; [Chen et al., 2015], [2016b],[c]; [Dai et al., 2018]).
0.3 M HP-β-CD was used to formulate ISO into a solution for intravenous injection while 0.3% CMC (w/v) was applied as a suspending vehicle for oral delivery ([Yeo et al., 2017]). To enhance the stability of ISO, L-ascorbic acid (final concentration: 0.1 mg/mL) was spiked into both intravenous and oral formulations ([Yeo et al., 2017]). The concentrations of ISO in intravenous and oral formulations were 5 and 13.3 mg/mL, respectively.
(§1) Twenty-two rats were divided into four groups. Group 1 (n = 5) received a single bolus intravenous injection of ISO at the dose of 90 μmol/kg (23.2 mg/kg). Serial blood samples were collected before dosing and at 5, 15, 30, 60, 90, 120, 180, 240, 300, 420, 540, and 720 min after intravenous injection. Group 2 (n = 5) received a single oral administration of ISO at the dose of 200 μmol/kg (51.6 mg/kg). Serial blood samples were collected before dosing and at 15, 30, 45, 60, 90, 120, 180, 240, 300, 420, 540, and 720 min after oral gavage. Group 3 (n = 5) received daily oral pre-treatment of oral dosing vehicle (2 mL/kg) while Group 4 (n = 7) received daily oral pre-treatment of ISO at the dose of 100 μmol/kg (25.8 mg/kg) for 1 week. On day 7, ∼8–10 h after the last pre-treatment dose, surgery was performed on rats in Groups 3 and 4 for jugular vein cannulation, and blood samples were also collected from Groups 3 and 4 for metabolomic study. On day 8, the pharmacokinetic study was carried out on these two groups of animals at the dose of 100 μmol/kg (25.8 mg/kg) using the same blood sampling schedule as Group 2.
All blood samples during the pharmacokinetic study were collected in heparinized tubes containing L-ascorbic acid (final concentration = 0.8 mg/mL) to ensure stability of ISO ([Yeo et al., 2017]). The samples were centrifuged at 5000 g for 5 min, and the plasma was harvested and stored at −40°C until LC–MS/MS analysis.
The LC–MS/MS analysis was carried out using an Agilent 1290 Infinity Liquid Chromatography system (Agilent Technologies, Santa Clara, CA, United States), which is coupled to an ABSciex QTRAP® 5500 mass spectrometer (AB Sciex, Framingham, MA, United States) and equipped with a TurboIon Spray probe (AB Sciex). The LC–MS/MS system was controlled by the Analyst 1.5.2 software (AB Sciex) and chromatographic data analysis was performed using the same software. […]

[2] = Stock solution stability of isorhapontigenin; assay type: physicochemical; conditions: 24 °C, 10 days; stock solution in DMSO
Method: Stock solutions of ISO were prepared by dissolution in DMSO and they were stored at room temperature. The stock solutions were further diluted using blank rat plasma to prepare the calibration standards and QC samples. The stock solution of IS was dissolved in acetonitrile to a concentration of 10 μg/mL. 100 μL IS solution was aliquoted into 1.5-mL polypropylene tubes for storage at −80°C. During sample preparation, this solution was further diluted to the working concentration of 10 ng/mL using acetonitrile containing 0.18 μM of disodium EDTA and stored at 4°C.
The dilution integrity was confirmed using a dilution factor of 20. In the presence of L-ascorbic acid (0.8 mg/mL), ISO appeared to stable in plasma; similarly, addition of EDTA in IS acetonitrile solution (0.18 μM) enhanced the post-preparative stability. The details in accuracy, precision, stability, and matrix effect can be found in Supplementary Tables S1–S3.

[3] = Body weight before and after 1-week ISO intervention; assay type: in vivo, Sprague-Dawley rats; conditions: 1-week daily oral ISO 100 μmol/kg, normal diet; p = 0.74 and 0.89
Method: as §1
One-week daily oral dosing of ISO decreased plasma levels of some di-aminoacid and N-acetyl amino acids such as glycyl-glycine, N-acetyl-glycine, N-acetyl-glutamine, and N-acetyl-orthinine. […] In this study, the healthy Sprague-Dawley rats were fed with normal diet. […]

[4] = Group 1, single intravenous 90 μmol/kg, HP–β–CD
[5] = Group 2, single oral 200 μmol/kg, suspension
[6] = Group 3, oral 100 μmol/kg after 1-week vehicle pre-treatment, suspension
[7] = Group 4, oral 100 μmol/kg after 1-week daily oral ISO 100 μmol/kg pre-treatment, suspension
[8] = male, Sprague-Dawley, plasma, po, 100 umol/kg, Group 3, oral 100 μmol/kg after 1-week vehicle pre-treatment, suspension
[9] = male, Sprague-Dawley, plasma, po, 100 umol/kg, Group 4, oral 100 μmol/kg after 1-week daily oral ISO 100 μmol/kg pre-treatment, suspension
[10] = male, Sprague-Dawley, plasma, po, 200 umol/kg, Group 2, single oral 200 μmol/kg, suspension
[11] = single intravenous 90 μmol/kg, resveratrol data ref Chen et al., 2016c
[12] = single oral 200 μmol/kg, resveratrol data ref Chen et al., 2016c

For `COc1cc(/C=C/c2cc(O)cc(O)c2)ccc1O` [isorhapontigenin, trans-3,5,4′-trihydroxy-3′-methoxystilbene], the “AUC0→last /Dose” value [1, 4] was 14.2 ± 5.2 kg⋅min/L, the V [1, 4] was 0.893 ± 0.103 L/kg and the “AUC0→last /Dose” value [1, 5] was 4.28 ± 0.94 kg⋅min/L. The “Cmax /Dose” value [1, 5] was 27800 ± 3200 µg/mL, the “AUC0→last /Dose” value [1, 6] was 2.54 ± 0.69 kg⋅min/L and the “Cmax /Dose” value [1, 6] was 29200 ± 2800 µg/mL. The “AUC0→last /Dose” value [1, 7] was 2.97 ± 0.80 kg⋅min/L, the “Cmax /Dose” value [1, 7] was 23900 ± 6200 µg/mL and the clearance ([1]; male, Sprague-Dawley, plasma, 90 umol/kg, Group 1, single intravenous 90 μmol/kg, HP–β–CD) was 76.8 ± 23.7 mL/min/kg. For the same compound, the Tmax ([1]; male, Sprague-Dawley, plasma, 100 umol/kg, Group 3, oral 100 μmol/kg after 1-week vehicle pre-treatment, suspension) was 0.25 h, the Tmax ([1]; male, Sprague-Dawley, plasma, 200 umol/kg, Group 2, single oral 200 μmol/kg, suspension) was 0.25 to 0.75 h and the MRT ([1]; male, Sprague-Dawley, plasma, iv, 90 umol/kg, Group 1, single intravenous 90 μmol/kg, HP–β–CD) was 0.313 h. For the same compound, the MRT [1, 8] was 2.27 h, the bioavailability [1, 8] was 17.9 ± 4.9% and the MRT [1, 9] was 3.03 h. The bioavailability [1, 9] was 20.8 ± 5.6%, the MRT [1, 10] was 3.07 h and the bioavailability [1, 10] was 30.1 ± 6.6%. The “CL relative to resveratrol” value [1, 11] was “comparable to resveratrol”, the “V relative to resveratrol” value [1, 11] was “comparable to resveratrol” and the “average MRT longer than resveratrol” value [1, 11] was roughly 70%. The “time ISO remained measurable in the systemic circulation after administration” value ([1]; single oral 100 μmol/kg) was “at least 12 h”, the “F relative to resveratrol” value [1, 12] was “two to three folds greater” and the “dose normalized AUC0→t (AUC0→t/Dose) relative to resveratrol” value [1, 12] was “two to three folds greater”. The “dose normalized Cmax (Cmax/Dose) relative to resveratrol” value [1, 12] was “two to three folds greater”, the “Stock solution stability (% remaining)” value [2] was 96.7 ± 3.0 % remaining and the “body weights, vehicle vs ISO treatment group, before and after ISO intervention” value [3] was “remained similar”.
